Source: PMC3030600, “Characterizing Ligand-Gated Ion Channel Receptors with Genetically Encoded Ca^++ Sensors” (PLoS ONE, 2011)
Like-named read-outs stand apart in the source and are kept apart here. Blank lines part the entries; values can stand above or below the molecule they belong to.

Assays:
[1] = target: T1, mouse 5-HT3A serotonin receptors (Mus musculus, UniProt P23979); assay: 5-HT3A CNiFER FRET Flex assay; assay type: cell-based; conditions: for mode of antagonism / Schild Slope: vs 5-HT; for Schild Slope: in aCSF
T1 sequence (P23979 24-489): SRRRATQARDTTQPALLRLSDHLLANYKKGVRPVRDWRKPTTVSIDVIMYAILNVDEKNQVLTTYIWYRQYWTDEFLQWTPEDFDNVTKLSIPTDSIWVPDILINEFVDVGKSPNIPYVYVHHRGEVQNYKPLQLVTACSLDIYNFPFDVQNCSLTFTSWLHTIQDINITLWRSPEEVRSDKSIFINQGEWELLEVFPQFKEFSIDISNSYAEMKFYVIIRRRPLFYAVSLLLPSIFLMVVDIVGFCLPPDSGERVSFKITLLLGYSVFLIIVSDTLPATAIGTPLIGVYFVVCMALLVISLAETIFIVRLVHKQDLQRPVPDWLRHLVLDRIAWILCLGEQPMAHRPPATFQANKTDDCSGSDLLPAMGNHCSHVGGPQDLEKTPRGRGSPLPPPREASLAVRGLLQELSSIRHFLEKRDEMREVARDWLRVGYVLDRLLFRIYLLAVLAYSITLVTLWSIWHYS
Protocol: Cells were cultured in 10 cm plates with DMEM (Mediatech, Manassas, VA) supplemented with 10% FBS (Gemini Bio-Products, West Sacramento, CA; Atlanta Biologicals, Lawrenceville, GA) and 1% Glutamine (Invitrogen), and incubated at 37°C with 10% CO2. Cells were selected at ∼70% confluency and plated the day before using 100 µl volumes per well into black, transparent flat-bottom, TC treated 96-well plates (Thermo, Waltham, MA; E&K, Greiner Campbell, CA). Plates were removed from the incubator the next day and the media was replaced with 100 µl of artificial cerebral spinal fluid (aCSF) [containing 121 mM NaCl, 2.4 mM Ca^2+, 1.3 mM Mg^2+, 5 mM KCl, 26 mM NaHCO3, 1.2 mM Na2HPO4, 10 mM glucose, 5 mM Hepes Na^+, pH 7.4]. For all assays performed on α7-nAChR CNiFERs 10 µM of the PAM, PNU-120596 (Tocris, Ellisville, MO), was prepared in aCSF. In the case of antagonist measurements, antagonists, at 1.5 times the final desired concentration, were prepared in aCSF. For non-CNiFER cell lines, Blue Membrane Potential dye (Molecular Devices, Sunnyvale, CA) was prepared in aCSF and diluted 2 fold the recommended dilution. Plates were incubated for at least 30 min at 37°C and 10% CO2 for any assay that included antagonist, dye, or PAM modification to the aCSF. Following incubation, plates were removed and placed into the Molecular Devices FlexStation III instrument and run at 37°C. Injection rates varied between […], and 50 µl of the specified agonist prepared at 3x final concentration in the aforementioned aCSF solution was injected after 30 s of baseline measurement. […] All wells were replicated (two or three times) in the same plate. Mean peak FRET ratios calculated from replicates were exported and plotted against agonist concentrations using Graphpad Prism 4 (Carlsbad, CA). A sigmoidal concentration-response (variable slope) regression of the mean peak FRET ratios was fit to generate a concentration-response curve and obtain an EC50 value.
To measure potencies of competitive antagonists, three concentration-response curves with different antagonist concentrations were compared to a control curve (without antagonist). Mean FRET responses generated concentration response curves, and antagonist dependent shifts in EC50 values were used to calculate dose ratios (DR), as a concentration ratio of EC50'/EC50 for the specified agonist (where EC50' is in the presence of the antagonist at the specified concentration). DRs were used to produce a Schild regression plot for analysis of competitive antagonism and generate a Ka value. Analysis consisted of potting Log (DR-1) against –Log [Antagonist]. The Schild Ka value for competitive antagonists was calculated from the x-intercept at y = 0, as the –Log (Ka), [38]. All errors reported are arithmetic standard deviations unless otherwise noted.

α7/5-HT3A = conditions: cited from earlier work; for EC50: Ca2+ dye (Fluo-3-AM) on HEK293 cells expressing human receptors, read-out: EC50, α7/5-HT3A (non-CNiFER)
α7-nAChR [2] = target: α7-nAChR (Homo sapiens, UniProt P36544); conditions: read-out: EC50, α7-nAChR (non-CNiFER); potential-sensitive dye, human receptors
Chain of α7-nAChR (Homo sapiens, UniProt P36544) (P36544 23-502): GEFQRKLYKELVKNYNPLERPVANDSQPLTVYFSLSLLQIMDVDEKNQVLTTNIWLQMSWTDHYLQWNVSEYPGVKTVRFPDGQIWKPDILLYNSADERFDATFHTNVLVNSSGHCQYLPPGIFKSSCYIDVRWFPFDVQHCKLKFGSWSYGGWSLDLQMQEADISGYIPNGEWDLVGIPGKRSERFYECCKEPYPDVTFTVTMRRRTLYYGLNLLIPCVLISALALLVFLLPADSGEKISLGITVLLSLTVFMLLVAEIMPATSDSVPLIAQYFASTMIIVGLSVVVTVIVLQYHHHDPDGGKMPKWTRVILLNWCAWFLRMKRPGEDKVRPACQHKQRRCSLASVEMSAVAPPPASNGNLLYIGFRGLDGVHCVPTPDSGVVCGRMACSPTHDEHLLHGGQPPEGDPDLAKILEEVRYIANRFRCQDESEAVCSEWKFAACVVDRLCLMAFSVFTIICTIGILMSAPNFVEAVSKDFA

[3] = target: human α7 nicotinic acetylcholine receptors (Homo sapiens, UniProt P36544); assay: cell-based; assay type: cell-based
Chain of human α7 nicotinic acetylcholine receptors (P36544 23-502): as above

α7-nAChR [4] = conditions: cited from earlier work

Kd ([1]; read-out: CNiFER Ka (Schild)): 1.6 ± 0.9 nM
mode of antagonism [1]: near competitive block
Schild Slope [1]: −1.3±0.04
Schild Slope ([1]; listed as ondansetron): -1.3±0.04
Molecule: Cc1nccn1CC1CCc2c(c3ccccc3n2C)C1=O (stereo not shown) [Ondansetron, ondansetron]

Molecule: Clc1ccc(C2CC3CCC2N3)cn1 (racemic) [(±)-Epibatidine, (±)-epibatidine]
EC50 (α7/5-HT3A): 180 ± 20 nM
EC50 (α7-nAChR [2]): 17 ± 2.6 nM
EC50 ([3]; read-out: EC50, α7-nAChR CNiFER): 28 nM
EC50 ([3]; read-out: EC50 of agonist curve): 3.6 nM

Molecule: (−)-Nicotine
EC50 (α7/5-HT3A): 19100 nM

mode of antagonism [1]: greater non-competitive component
Molecule: CN1[C@@H]2CC[C@H]1C[C@@H](OC(=O)c1c[nH]c3ccccc13)C2 [tropisetron]

Molecule: CCN1C[C@]2(COC(=O)c3ccccc3N3C(=O)C[C@H](C)C3=O)CC[C@H](OC)[C@@]34[C@@H]5C[C@H]6[C@H](OC)[C@@H]5[C@](O)(C[C@@H]6OC)[C@@](O)([C@@H](OC)[C@H]23)[C@@H]14 [MLA, methyllycaconitine]
IC50 (α7/5-HT3A; read-out: IC50 (non-CNiFER)): 36 ± 13 nM
half time for dissociation (α7-nAChR [4]): 2.3 min
Kd [3]: 3.2 nM
Schild Slope [3]: −1.2±0.3
mode of antagonism (Schild analysis) [3]: competitively

Hill coefficient ([1]; 5-HT3A CNiFER concentration-response (Figure 6A)): 2.6
Molecule: NCCc1c[nH]c2ccc(O)cc12 [5-HT, 5-Hydroxytryptamine]
